This note sets out measurements from ChEMBL document CHEMBL1155854, “Conformationally constrained farnesoid X receptor (FXR) agonists: Naphthoic acid-based analogs of GW 4064” (Bioorg Med Chem Lett, 2008).

In one series the target is T1, Cytochrome P450 1A2 (Homo sapiens, UniProt P05177).
T1 sequence (P05177 whole entry): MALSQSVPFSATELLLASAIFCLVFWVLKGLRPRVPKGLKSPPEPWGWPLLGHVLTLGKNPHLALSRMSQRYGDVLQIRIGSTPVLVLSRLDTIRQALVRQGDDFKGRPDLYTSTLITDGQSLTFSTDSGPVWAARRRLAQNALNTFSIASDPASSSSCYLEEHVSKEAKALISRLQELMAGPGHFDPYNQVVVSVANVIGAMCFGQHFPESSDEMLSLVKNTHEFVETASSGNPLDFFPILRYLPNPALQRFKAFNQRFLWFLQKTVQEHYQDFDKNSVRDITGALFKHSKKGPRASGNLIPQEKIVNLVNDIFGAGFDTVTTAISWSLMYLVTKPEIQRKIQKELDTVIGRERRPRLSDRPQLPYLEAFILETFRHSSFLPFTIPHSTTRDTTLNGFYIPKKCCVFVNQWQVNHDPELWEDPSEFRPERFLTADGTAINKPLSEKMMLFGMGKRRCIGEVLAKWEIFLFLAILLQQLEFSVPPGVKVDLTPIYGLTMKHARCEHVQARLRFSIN
Description: Inhibition of CYP1A2 in pooled human liver microsome. The format is ADME, microsomes. A general note: Liver microsomes are a subcellular fraction often used to study metabolism.

A short description of series [1]: Apparent permeability in MDCK cells. The format is ADME, cell-based, Canis lupus familiaris. Conditions: dog.
The nature of series [2]: Volume of distribution at steady state in iv dosed mouse. The format is ADME, organism-based. Conditions: in vivo, read-out: Vdss.
Series [3] is described as follows: Half life in iv dosed rat. It is filed as ADME, organism-based. Conditions: in vivo.
A short description of series [4]: Volume of distribution at steady state in iv dosed rat. The format is ADME, organism-based. Conditions: in vivo, read-out: Vdss.
Series [5] in a line: Oral bioavailability in rat at 30 mg/kg. The format is ADME, organism-based. Conditions: in vivo.
Series [6] in a line: Volume of distribution at steady state in iv dosed Beagle dog. It is filed as ADME, organism-based, Canis lupus familiaris. Conditions: in vivo, read-out: Vdss.
Series [7] deals with Rattus norvegicus. Description: Reduction of serum aspartate aminotransferase level in alpha-naphthyl-isothiocyanate-induced rat acute cholestasis model at 100 to 300 mg/kg, po bid for 4 days dosed before 2 days induction by alpha-naphthyl-isothiocyanate. The format is functional, organism-based.
The target in the next series is T2, Glucocorticoid receptor (Homo sapiens, UniProt P04150).
T2 sequence (P04150 whole entry): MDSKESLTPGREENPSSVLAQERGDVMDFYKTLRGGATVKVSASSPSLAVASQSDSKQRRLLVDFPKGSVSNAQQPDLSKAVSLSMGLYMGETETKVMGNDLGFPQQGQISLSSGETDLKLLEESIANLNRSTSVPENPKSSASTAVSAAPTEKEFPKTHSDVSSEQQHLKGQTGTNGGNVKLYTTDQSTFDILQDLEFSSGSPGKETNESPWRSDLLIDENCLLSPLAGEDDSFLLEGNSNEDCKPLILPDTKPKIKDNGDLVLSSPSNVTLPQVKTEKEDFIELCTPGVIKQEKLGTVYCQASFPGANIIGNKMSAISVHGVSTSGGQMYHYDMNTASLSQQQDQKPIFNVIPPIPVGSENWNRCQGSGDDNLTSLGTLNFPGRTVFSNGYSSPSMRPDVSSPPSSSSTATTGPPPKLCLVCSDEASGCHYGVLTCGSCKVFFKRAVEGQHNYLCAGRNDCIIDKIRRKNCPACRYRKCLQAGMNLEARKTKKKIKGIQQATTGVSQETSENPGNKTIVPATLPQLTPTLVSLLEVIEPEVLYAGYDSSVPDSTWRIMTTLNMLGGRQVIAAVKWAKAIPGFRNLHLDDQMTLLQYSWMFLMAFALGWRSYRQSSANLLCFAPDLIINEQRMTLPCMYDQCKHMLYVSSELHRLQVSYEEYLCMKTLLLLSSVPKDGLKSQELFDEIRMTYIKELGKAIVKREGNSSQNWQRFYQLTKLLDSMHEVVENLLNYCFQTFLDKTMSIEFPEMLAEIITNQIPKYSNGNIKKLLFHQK
Description: Agonist activity at GR by fluorescence polarization assay. It is filed as functional.

Series [8] can be described thus: Half life in iv dosed mouse. Conditions: in vivo. The format is ADME, organism-based.
The target in another series is Estrogen receptor beta (Homo sapiens, UniProt Q92731). Description: Agonist activity at ERbeta by fluorescence polarization assay. The format is functional. A general note: Polarisation of emitted light reports the rotation of a fluorescent probe.
The target in series [9] is T3, Peroxisome proliferator-activated receptor gamma (Homo sapiens, UniProt P37231).
T3 sequence (P37231 whole entry): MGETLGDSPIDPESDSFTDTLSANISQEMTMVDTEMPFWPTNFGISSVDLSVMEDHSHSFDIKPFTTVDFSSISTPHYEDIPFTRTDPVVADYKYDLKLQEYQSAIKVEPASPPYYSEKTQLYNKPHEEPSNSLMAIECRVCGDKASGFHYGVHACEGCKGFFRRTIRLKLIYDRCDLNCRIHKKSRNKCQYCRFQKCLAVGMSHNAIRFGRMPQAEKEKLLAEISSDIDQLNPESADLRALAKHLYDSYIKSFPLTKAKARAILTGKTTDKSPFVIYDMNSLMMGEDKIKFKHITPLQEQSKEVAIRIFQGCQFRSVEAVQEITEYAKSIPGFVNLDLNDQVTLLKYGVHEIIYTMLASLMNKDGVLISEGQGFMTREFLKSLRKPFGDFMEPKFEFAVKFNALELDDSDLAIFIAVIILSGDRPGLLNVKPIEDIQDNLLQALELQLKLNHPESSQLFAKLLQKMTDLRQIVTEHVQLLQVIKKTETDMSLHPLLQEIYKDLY
Description: Agonist activity at PPARgamma by SPA assay. The format is functional.

Series [10] has as its target T4, Peroxisome proliferator-activated receptor delta (Homo sapiens, UniProt Q03181).
T4 sequence (Q03181 whole entry): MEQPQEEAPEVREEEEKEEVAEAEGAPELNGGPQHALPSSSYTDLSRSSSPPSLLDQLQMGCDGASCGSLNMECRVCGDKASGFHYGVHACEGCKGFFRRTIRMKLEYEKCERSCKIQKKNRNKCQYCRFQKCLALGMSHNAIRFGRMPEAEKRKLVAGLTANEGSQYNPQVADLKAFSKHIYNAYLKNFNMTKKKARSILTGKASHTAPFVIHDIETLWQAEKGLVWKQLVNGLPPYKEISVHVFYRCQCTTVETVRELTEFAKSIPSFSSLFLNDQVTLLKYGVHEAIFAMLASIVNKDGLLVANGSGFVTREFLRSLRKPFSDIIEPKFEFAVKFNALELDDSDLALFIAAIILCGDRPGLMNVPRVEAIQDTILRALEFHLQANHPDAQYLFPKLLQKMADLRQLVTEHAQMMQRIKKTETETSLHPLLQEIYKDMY
Description: Agonist activity at PPARdelta by transient transfection assay. It is filed as functional.

The test system of series [11] is Rattus norvegicus. Description: Reduction of serum direct bilirubin level in alpha-naphthyl-isothiocyanate-induced rat acute cholestasis model at 100 to 300 mg/kg, po bid for 4 days dosed before 2 days induction by alpha-naphthyl-isothiocyanate. The format is functional, organism-based.
Series [12] can be described thus: Selectivity for FXR over PXR.

Structures are written as SMILES. The source made the active and inactive calls. The calls are words filed in the database; no cut-off is given here. Bounds are passed on as bounds.

Chain of Estrogen receptor beta (Q92731 whole entry): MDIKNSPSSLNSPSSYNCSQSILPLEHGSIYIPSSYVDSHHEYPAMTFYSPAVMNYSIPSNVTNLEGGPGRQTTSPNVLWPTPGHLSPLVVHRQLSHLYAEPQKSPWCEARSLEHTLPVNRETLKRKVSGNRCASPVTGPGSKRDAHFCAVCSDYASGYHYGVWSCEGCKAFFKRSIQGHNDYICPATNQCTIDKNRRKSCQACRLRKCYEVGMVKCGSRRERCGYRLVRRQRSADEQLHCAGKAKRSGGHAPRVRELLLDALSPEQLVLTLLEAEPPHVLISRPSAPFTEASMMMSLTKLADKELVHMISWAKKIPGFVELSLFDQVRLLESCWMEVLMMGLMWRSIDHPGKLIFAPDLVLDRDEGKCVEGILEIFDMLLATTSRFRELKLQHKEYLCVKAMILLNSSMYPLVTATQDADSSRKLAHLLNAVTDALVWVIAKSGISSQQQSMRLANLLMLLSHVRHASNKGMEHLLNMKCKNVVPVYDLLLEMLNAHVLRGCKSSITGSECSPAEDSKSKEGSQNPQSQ

`CC(C)c1onc(-c2c(Cl)cccc2Cl)c1COc1ccc(-c2ccc3c(C(=O)O)cccc3c2)cc1` yielded an IC50 against Cytochrome P450 1A2 of 23 µM. The apparent permeability (Papp) in [1] came out at 19 ×10⁻⁶ cm/s. Further, the Vd is 0.4 L/kg in series [2], 1 L/kg in [4] and 0.48 L/kg in [6]. For the same molecule, the values for the half-life in [3] and in [8] were 0.4 h and 1.6 h, respectively. The bioavailability in series [5] stood at 7.7%. Further, the result in the series on Rattus norvegicus [7] and in the series on Rattus norvegicus [11] was Active. The XC50 at Glucocorticoid receptor is more than 20 µM; at Estrogen receptor beta it was more than 20 µM; in series [9], more than 10 µM; in series [10], more than 10 µM. Besides, the Selectivity ratio in series [12] was 35.

One may read the IC50 as the concentration that inhibits the measured activity by half. A higher IC50 goes with lower potency. In general, Papp refers to the rate of passage across a membrane or cell layer, normalised by area and donor concentration. A word on the half-life: it is how long it takes for the measured level to halve. Higher therefore signals slow loss. As a reminder, the bioavailability is dose-corrected exposure relative to a reference, in per cent. A higher bioavailability goes with much systemic uptake.
